From PMC4585333, “Novel Regulator of Acylated Ghrelin, CF801, Reduces Weight Gain, Rebound Feeding after a Fast, and Adiposity in Mice” (Frontiers in Endocrinology, 2015)

Legend:
[1] = Rebound food intake after a fast; type: in vivo, male C57BL/6J mice
Procedure: (§1) In general, male C57BL/6J mice (The Jackson Laboratory, Bar Harbor, ME, USA) weighing 20–25 g were used as experimental subjects. Throughout the duration of the studies, mice were housed under standard laboratory conditions and received ad libitum access to standard laboratory mouse chow and tap water. Lights in the facility were set to go on and off at 12 h intervals with the lights going on at 7:00 a.m. In some experiments, mice also had ad libitum access to a high-fat diet containing 60% caloric content from fat (TD 06414; Harlan Teklad, Indianapolis, IN, USA) in addition to regular chow to measure dietary preferences. All procedures were approved by the Carleton University Animal Care Committee and followed the guidelines of the Canadian Council on Animal Care.
Mice (n = 16) were singly housed and given free access to water and regular chow for a 4-day baseline period. After this, mice were assigned to one of three groups: vehicle (n = 5), CF801 low dose (n = 5; 11 μmol⋅kg^−1 – LD), or CF801 high dose (n = 6; 22 μmol⋅kg^−1 – HD). These mice were injected intraperitoneally once a day for 4 days starting at 10:00 a.m. Following 4 days of treatment, animals were tested for rebound feeding after a fast. To do this, we removed the food from each cage 1 h before lights out (6:00 p.m.), and food was returned to the cage the following day 1 h after the last injection. Food intake was then monitored every hour for 4 h to determine the effects of CF801 on rebound feeding. Animals were then sacrificed by rapid decapitation to collect trunk blood and other tissues. Two samples were lost during sample collection, so the number of samples used to measure acylated ghrelin was reduced to n = 14.

Body weight gain = type: in vivo, male C57BL/6J mice; conditions: 13 days
Procedure: as §1
A second cohort of mice (n = 30) was acclimated to the laboratory conditions for 1 week prior to the onset of the experiment. Mice were housed individually and their body weight and food intake was recorded daily for a baseline period of 10 days. Given that ghrelin augments the intake of preferred diets ([28]), all mice received ad libitum access to a high-fat diet (60% of calories coming from fat), in addition to regular chow, to determine if CF801 altered dietary preference. Both chow and high-fat diet pellets were provided daily to mice ad libitum in pre-weighed amounts. Mice were then assigned to four different groups: non-injected control (NIC; n = 7), vehicle (0.9% saline) (VEH; n = 7), low-dose CF801 (11 μmol⋅kg^−1 – LD; n = 8) and high-dose CF801 (22 μmol⋅kg^−1 – HD; n = 8). Each day at 09:00 hours, mice were weighed and their food intake (both chow and high-fat diet) was recorded. After this, mice received an intraperitoneal injection of either CF801 or saline (except for the non-injected controls). Following the 13-day treatment period, half the animals in each group were sacrificed, while the remaining mice were allowed to recover from treatment. […] Each carcass was analyzed separately and measurements of total fat mass, total lean mass, and total water weight were obtained for each mouse.

GSAFLSPEHQRK KRRQRRR-NH2 [CF801]
food consumed during first hour of refeeding, high dose ([1]; 22 μmol⋅kg^−1 i.p., after fast, F(2,24) = 2.394, p < 0.05, partial eta^2 = 0.22): lower amount of food consumed
total chow consumed during 4-h food access, high dose vs saline ([1]; 22 μmol⋅kg^−1 i.p., HD vs saline, p < 0.01, Fisher LSD): statistically significant
total chow consumed during 4-h food access, treatment effect ([1]; after fast, F(2,24) = 4.527, partial eta^2 = 0.411, p > 0.05 as printed): significant overall dose-dependent treatment effect
food consumed, other time points ([1]; any time point of 4 h refeeding other than first hour, p > 0.05): No significant effects were seen at any other time point examined
food intake or weight gain during first 3 days of treatment ([1]; i.p. once daily, 11 and 22 μmol⋅kg^−1, data not shown, p > 0.05): No effects
weight gain, low dose vs NIC and VEH (Body weight gain; 11 μmol⋅kg^−1 i.p. daily, not statistically significant): tended to have lower weight gain than control NIC (p = 0.092) and VEH-treated mice (p = 0.065)
weight gain, high dose (Body weight gain; 22 μmol⋅kg^−1 i.p. daily, vs saline or non-injected, F(3,29) = 3.098, p < 0.05, partial eta^2 = 0.271): decrease in weight gain
weight gain, low dose vs high dose (Body weight gain; 11 vs 22 μmol⋅kg^−1 i.p. daily, p > 0.05): no differences in weight gain
